Tests used:
green foxtail [1] = experiment: Test Example 5: herbicidal effect by foliage application, plastic box (Table 20, symbol G); format: in vivo, green foxtail (Setaria viridis); conditions: foliage application, 320 g/ha, evaluated three weeks after application
Procedure, shortened: (§1)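 Post-emergence foliar test in sterilized diluvial soil. Compound applied as water-diluted emulsion at a predetermined rate to 14-day-old plants; evaluation at three weeks.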

Japanese bulrush = experiment: Test Example 1: herbicidal activity, application before weed generation under submerged conditions (Table 16, symbol B); format: in vivo, Japanese bulrush (Schoenoplectus juncoides); conditions: 320 g/ha applied herbicide
Procedure, shortened: (§2)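 Submerged Wagner pots (alluvial soil, 4 cm water) sown with weed seeds and planted with 2.5-leaf rice seedlings; emulsifiable concentrate diluted in water applied to water surface on sowing day. Held in greenhouse at 25-30 °C; injury scored 0-5 by herbicidal rate after three weeks.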

chickweed [2] = experiment: Test Example 4: herbicidal effect by soil treatment (Table 19, symbol P); format: in vivo, common chickweed (Stellaria media); conditions: amount of applied herbicide 320 g/ha
Procedure, shortened: (§3)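 Scoring uses the grading scale of an earlier test, three weeks post-application. Treatment consists of spraying a diluted emulsion formulation across the surface of sterilized diluvial soil in which seeds are buried near 1.5 cm deep; boxes are kept in a greenhouse between 25° C. and 30° C.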

velvetleaf [3] = experiment: Test Example 4: herbicidal effect by soil treatment (Table 19, symbol M); format: in vivo, velvetleaf (Abutilon theophrasti); conditions: amount of applied herbicide 320 g/ha
Procedure, shortened: as §3

barnyard grass [4] = experiment: Test Example 3: herbicidal effect by foliage application, Wagner pot (Table 18, symbol H); format: in vivo, barnyard grass (Echinochloa crus-galli); conditions: amount of applied herbicide 320 g/ha
Procedure, shortened: (§4)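 Plants were sown in alluvial soil held under 0.1–0.5 cm standing water and grown 14 days in a greenhouse at 25–30 °C. An emulsifiable formulation, water-diluted to the set dose, was then sprayed onto the foliage, and effects were scored three weeks later using previously defined criteria.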

barnyard grass [5] = experiment: Test Example 4: herbicidal effect by soil treatment (Table 19, symbol H); format: in vivo, barnyard grass (Echinochloa crus-galli); conditions: amount of applied herbicide 320 g/ha
Procedure, shortened: as §3

barnyard grass [6] = experiment: Test Example 5: herbicidal effect by foliage application, plastic box (Table 20, symbol H); format: in vivo, barnyard grass (Echinochloa crus-galli); conditions: foliage application, 320 g/ha, evaluated three weeks after application
Procedure, shortened: as §1

green foxtail [7] = experiment: Test Example 4: herbicidal effect by soil treatment (Table 19, symbol G); format: in vivo, green foxtail (Setaria viridis); conditions: amount of applied herbicide 320 g/ha
Procedure, shortened: as §3

wild oat [8] = experiment: Test Example 5: herbicidal effect by foliage application, plastic box (Table 20, symbol I); format: in vivo, wild oat (Avena fatua); conditions: foliage application, 320 g/ha, evaluated three weeks after application
Procedure, shortened: as §1

blackgrass [9] = experiment: Test Example 5: herbicidal effect by foliage application, plastic box (Table 20, symbol J); format: in vivo, blackgrass (Alopecurus myosuroides); conditions: foliage application, 320 g/ha, evaluated three weeks after application
Procedure, shortened: as §1

lambsquarters [10] = experiment: Test Example 5: herbicidal effect by foliage application, plastic box (Table 20, symbol O); format: in vivo, lambsquarters (Chenopodium album); conditions: foliage application, 320 g/ha, evaluated three weeks after application
Procedure, shortened: as §1

persian speedwell [11] = experiment: Test Example 5: herbicidal effect by foliage application, plastic box (Table 20, symbol R); format: in vivo, Persian speedwell (Veronica persica); conditions: foliage application, 320 g/ha, evaluated three weeks after application
Procedure, shortened: as §1

windgrass [12] = experiment: Test Example 4: herbicidal effect by soil treatment (Table 19, symbol L); format: in vivo, windgrass (Apera spica-venti); conditions: amount of applied herbicide 320 g/ha
Procedure, shortened: as §3

southern crabgrass [13] = experiment: Test Example 5: herbicidal effect by foliage application, plastic box (Table 20, symbol F); format: in vivo, southern crabgrass (Digitaria ciliaris); conditions: foliage application, 320 g/ha, evaluated three weeks after application
Procedure, shortened: as §1

oval-leafed pondweed = experiment: Test Example 1: herbicidal activity, application before weed generation under submerged conditions (Table 16, symbol C); format: in vivo, oval-leafed pondweed (Monochoria vaginalis); conditions: 320 g/ha applied herbicide
Procedure, shortened: as §2

false cleavers [14] = experiment: Test Example 5: herbicidal effect by foliage application, plastic box (Table 20, symbol Q); format: in vivo, false cleavers (Galium spurium); conditions: foliage application, 320 g/ha, evaluated three weeks after application
Procedure, shortened: as §1

late watergrass = experiment: Test Example 1: herbicidal activity, application before weed generation under submerged conditions (Table 16, symbol A); format: in vivo, late watergrass (Echinochloa oryzicola); conditions: 320 g/ha applied herbicide
Procedure, shortened: as §2

wild oat [15] = experiment: Test Example 4: herbicidal effect by soil treatment (Table 19, symbol I); format: in vivo, wild oat (Avena fatua); conditions: amount of applied herbicide 320 g/ha
Procedure, shortened: as §3

false cleavers [16] = experiment: Test Example 4: herbicidal effect by soil treatment (Table 19, symbol Q); format: in vivo, false cleavers (Galium spurium); conditions: amount of applied herbicide 320 g/ha
Procedure, shortened: as §3

southern crabgrass [17] = experiment: Test Example 4: herbicidal effect by soil treatment (Table 19, symbol F); format: in vivo, southern crabgrass (Digitaria ciliaris); conditions: amount of applied herbicide 320 g/ha
Procedure, shortened: as §3

windgrass [18] = experiment: Test Example 5: herbicidal effect by foliage application, plastic box (Table 20, symbol L); format: in vivo, windgrass (Apera spica-venti); conditions: foliage application, 320 g/ha, evaluated three weeks after application
Procedure, shortened: as §1

persian speedwell [19] = experiment: Test Example 4: herbicidal effect by soil treatment (Table 19, symbol R); format: in vivo, Persian speedwell (Veronica persica); conditions: amount of applied herbicide 320 g/ha
Procedure, shortened: as §3

redroot pigweed [20] = experiment: Test Example 4: herbicidal effect by soil treatment (Table 19, symbol N); format: in vivo, redroot pigweed (Amaranthus retroflexus); conditions: amount of applied herbicide 320 g/ha
Procedure, shortened: as §3

chickweed [21] = experiment: Test Example 5: herbicidal effect by foliage application, plastic box (Table 20, symbol P); format: in vivo, common chickweed (Stellaria media); conditions: foliage application, 320 g/ha, evaluated three weeks after application
Procedure, shortened: as §1

blackgrass [22] = experiment: Test Example 4: herbicidal effect by soil treatment (Table 19, symbol J); format: in vivo, blackgrass (Alopecurus myosuroides); conditions: amount of applied herbicide 320 g/ha
Procedure, shortened: as §3

redroot pigweed [23] = experiment: Test Example 5: herbicidal effect by foliage application, plastic box (Table 20, symbol N); format: in vivo, redroot pigweed (Amaranthus retroflexus); conditions: foliage application, 320 g/ha, evaluated three weeks after application
Procedure, shortened: as §1

Italian ryegrass [24] = experiment: Test Example 5: herbicidal effect by foliage application, plastic box (Table 20, symbol K); format: in vivo, Italian ryegrass (Lolium multiflorum); conditions: foliage application, 320 g/ha, evaluated three weeks after application
Procedure, shortened: as §1

rice flat sedge = experiment: Test Example 3: herbicidal effect by foliage application, Wagner pot (Table 18, symbol E); format: in vivo, rice flat sedge (Cyperus iria); conditions: amount of applied herbicide 320 g/ha
Procedure, shortened: as §4

Italian ryegrass [25] = experiment: Test Example 4: herbicidal effect by soil treatment (Table 19, symbol K); format: in vivo, Italian ryegrass (Lolium multiflorum); conditions: amount of applied herbicide 320 g/ha
Procedure, shortened: as §3

lambsquarters [26] = experiment: Test Example 4: herbicidal effect by soil treatment (Table 19, symbol O); format: in vivo, lambsquarters (Chenopodium album); conditions: amount of applied herbicide 320 g/ha
Procedure, shortened: as §3

velvetleaf [27] = experiment: Test Example 5: herbicidal effect by foliage application, plastic box (Table 20, symbol M); format: in vivo, velvetleaf (Abutilon theophrasti); conditions: foliage application, 320 g/ha, evaluated three weeks after application
Procedure, shortened: as §1

Chinese sprangletop = experiment: Test Example 3: herbicidal effect by foliage application, Wagner pot (Table 18, symbol D); format: in vivo, chinese sprangletop (Leptochloa chinensis); conditions: amount of applied herbicide 320 g/ha
Procedure, shortened: as §4

SMILES: COc1ccc2sc(-c3ccccc3)c(-c3c(O)c(C)nn(C)c3=O)c2c1 [2-164]
- herbicidal effect on G: green foxtail (criteria 0-5) (green foxtail [1]): 5 (Herbicidal rate of 90% or more (almost completely withered))
- Herbicidal effect on B: Japanese bulrush (grade 0-5) (Japanese bulrush): 0 (Herbicidal rate of 5% or less (almost no effect))
- P: chickweed, herbicidal effect rating (chickweed [2]): 5 (Herbicidal rate of 90% or more (almost completely withered))
- M: velvetleaf, herbicidal effect rating (velvetleaf [3]): 0 (Herbicidal rate of 5% or less (almost no effect))
- herbicidal effect on H: barnyard grass (barnyard grass [4]): 2 (Herbicidal rate of 20% or more and less than 40%)
- H: barnyard grass, herbicidal effect rating (barnyard grass [5]): 2 (Herbicidal rate of 20% or more and less than 40%)
- herbicidal effect on H: barnyard grass (criteria 0-5) (barnyard grass [6]): 1 (Herbicidal rate of 5% or more and less than 20%)
- G: green foxtail, herbicidal effect rating (green foxtail [7]): 5 (Herbicidal rate of 90% or more (almost completely withered))
- herbicidal effect on I: wild oat (criteria 0-5) (wild oat [8]): 4 (Herbicidal rate of 70% or more and less than 90%)
- herbicidal effect on J: blackgrass (criteria 0-5) (blackgrass [9]): 3 (Herbicidal rate of 40% or more and less than 70%)
- herbicidal effect on O: lambsquarters (criteria 0-5) (lambsquarters [10]): 3 (Herbicidal rate of 40% or more and less than 70%)
- herbicidal effect on R: persian speedwell (criteria 0-5) (persian speedwell [11]): 5 (Herbicidal rate of 90% or more (almost completely withered))
- L: windgrass, herbicidal effect rating (windgrass [12]): 3 (Herbicidal rate of 40% or more and less than 70%)
- herbicidal effect on F: southern crabgrass (criteria 0-5) (southern crabgrass [13]): 4 (Herbicidal rate of 70% or more and less than 90%)
- Herbicidal effect on C: oval-leafed pondweed (grade 0-5) (oval-leafed pondweed): 0 (Herbicidal rate of 5% or less (almost no effect))
- herbicidal effect on Q: false cleavers (criteria 0-5) (false cleavers [14]): 5 (Herbicidal rate of 90% or more (almost completely withered))
- Herbicidal effect on A: late watergrass (grade 0-5) (late watergrass): 3 (Herbicidal rate of 40% or more and less than 70%)
- I: wild oat, herbicidal effect rating (wild oat [15]): 1 (Herbicidal rate of 5% or more and less than 20%)
- Q: false cleavers, herbicidal effect rating (false cleavers [16]): 2 (Herbicidal rate of 20% or more and less than 40%)
- F: southern crabgrass, herbicidal effect rating (southern crabgrass [17]): 4 (Herbicidal rate of 70% or more and less than 90%)
- herbicidal effect on L: windgrass (criteria 0-5) (windgrass [18]): 5 (Herbicidal rate of 90% or more (almost completely withered))
- R: persian speedwell, herbicidal effect rating (persian speedwell [19]): 4 (Herbicidal rate of 70% or more and less than 90%)
- N: redroot pigweed, herbicidal effect rating (redroot pigweed [20]): 4 (Herbicidal rate of 70% or more and less than 90%)
- herbicidal effect on P: chickweed (criteria 0-5) (chickweed [21]): 5 (Herbicidal rate of 90% or more (almost completely withered))
- J: blackgrass, herbicidal effect rating (blackgrass [22]): 0 (Herbicidal rate of 5% or less (almost no effect))
- herbicidal effect on N: redroot pigweed (criteria 0-5) (redroot pigweed [23]): 5 (Herbicidal rate of 90% or more (almost completely withered))
- herbicidal effect on K: Italian ryegrass (criteria 0-5) (Italian ryegrass [24]): 4 (Herbicidal rate of 70% or more and less than 90%)
- herbicidal effect on E: rice flat sedge (rice flat sedge): 4 (Herbicidal rate of 70% or more and less than 90%)
- K: Italian ryegrass, herbicidal effect rating (Italian ryegrass [25]): 2 (Herbicidal rate of 20% or more and less than 40%)
- O: lambsquarters, herbicidal effect rating (lambsquarters [26]): 4 (Herbicidal rate of 70% or more and less than 90%)
- herbicidal effect on M: velvetleaf (criteria 0-5) (velvetleaf [27]): 3 (Herbicidal rate of 40% or more and less than 70%)
- herbicidal effect on D: Chinese sprangletop (Chinese sprangletop): 3 (Herbicidal rate of 40% or more and less than 70%)
